Measurements: patent US7728158B2, “PPAR activity regulators” (Ajinomoto Co., Inc., priority 2006, dated 2010)

Tests used:
PPAR-α = target: T1, PPAR-α (Homo sapiens, UniProt Q07869); assay: PPAR-α reporter assay (GAL4 luciferase, CV-1 cells); assay type: cell-based; conditions: induction ratio of luciferase activity at 50 μM, activity without tested compound = 1, hGR-GAL4-hPPAR-α
T1 construct: expressed in transfected cells; host or cells: CV-1 (African green monkey kidney)
T1 sequence (Q07869 167-468): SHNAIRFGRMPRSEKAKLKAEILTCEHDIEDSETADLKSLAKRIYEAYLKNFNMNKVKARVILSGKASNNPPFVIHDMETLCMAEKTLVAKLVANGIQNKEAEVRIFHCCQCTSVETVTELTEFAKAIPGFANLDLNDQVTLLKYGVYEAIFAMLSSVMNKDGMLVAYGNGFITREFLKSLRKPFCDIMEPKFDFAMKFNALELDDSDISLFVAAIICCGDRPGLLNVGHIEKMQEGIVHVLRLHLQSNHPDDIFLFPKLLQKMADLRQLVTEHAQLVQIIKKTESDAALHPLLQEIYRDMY
Method: The reporter assay of PPAR (peroxisome proliferator-activated receptor)-α was conducted by using the following plasmids in accordance with the known report (Steven A. Kliwer et al., The Journal of Biological Chemistry Vol. 270, No. 22: 12953-12956, 1995).
As luciferase expressing plasmid, used was the plasmid which introduces the sequence wherein 5 yeast GAL4 binding sequences, UAS (upstream activating sequence), are tandemly connected to the upstream of the thymidine kinase promoter of pTAL-Luc (#6252-1, produced by Clontech) (UAS×5-TK-Luc) (1).
(§1) As PPAR-α receptor expressing plasmid, used was the plasmid which introduces the N-terminal domain of human GR (1-76aa), the yeast GAL4 DNA binding domain (1-147aa) and PPAR-α ligand binding domain (167-468aa) to NotI site and SalI site of pExchange-1 core vector (#211176, produced by Stratagene) (hGR-GAL4-hPPAR-α) (2). The plasmid mixed solution used in the reporter assay of PPAR-α contains above (1), (2) and plasmid pcDNA3.1(−) as a carrier in the weight ratio of 4:1:3.
The medium having the following composition was used for seeding cell line CV-1 used in the reporter assay, derived from the kidney of an African green monkey, on the plate; and for diluting the tested compounds. Used was Dulbecco modified Eagle medium (D2902 without phenol red, produced by SIGMA) to which 3.7 g/L of NaHCO3, 3.5 g/L of D-glucose and 10% v/v fetal bovine serum were added.
(§2) CV-1 cells were seeded on the 384-well white plate (781080, produced by Greiner) to become 1.5×10^4 cells/30 μL per one well. Then, gene transfer was conducted in accordance with the manual by using OPTI-MEM I (11058-021, produced by GIBCO), FuGENE6 (1-815-075, produced by Roche) and the above PPAR-α plasmid mixed solution. The incubation was conducted in a carbon-dioxide incubator at 37° C. for 6 to 8 hours. Then, a diluted tested compound was added thereto and incubated in a carbon-dioxide incubator at 37° C. for 16 to 18 hours. Britelite (6016979, produced by PerkinElmer) was further added thereto and stirred, and the luciferase activity was measured with EnVision (produced by PerkinElmer).
(§3) Specifying the luciferase activity without addition of a tested compound as 1, the induction ratio of the luciferase activity by each tested compound was calculated.

PPAR-γ = target: T2, PPAR-γ (Homo sapiens, UniProt P37231); assay: PPAR-γ reporter assay (GAL4 luciferase, CV-1 cells); assay type: cell-based; conditions: induction ratio of luciferase activity at 25 μM, activity without tested compound = 1, hGR-GAL4-hPPAR-γ
T2 construct: expressed in transfected cells; host or cells: CV-1 (African green monkey kidney)
T2 sequence (P37231 204-505): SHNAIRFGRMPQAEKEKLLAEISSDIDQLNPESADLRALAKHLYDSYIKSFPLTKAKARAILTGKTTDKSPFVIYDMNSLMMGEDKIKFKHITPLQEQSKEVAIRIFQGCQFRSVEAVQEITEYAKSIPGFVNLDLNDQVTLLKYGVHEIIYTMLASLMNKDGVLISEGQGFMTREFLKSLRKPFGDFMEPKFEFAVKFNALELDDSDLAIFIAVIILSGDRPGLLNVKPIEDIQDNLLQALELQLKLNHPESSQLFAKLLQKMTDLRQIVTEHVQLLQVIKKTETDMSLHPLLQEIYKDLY
Method: The reporter assay of PPAR-γ was conducted by using the following plasmids in accordance with the known report (Steven A. Kliwer et al., The Journal of Biological Chemistry Vol. 270, No. 22: 12953-12956, 1995).
As luciferase expressing plasmid, used was the plasmid which introduces the sequence wherein 5 yeast GAL4 binding sequences, UAS, are tandemly connected to the upstream of the thymidine kinase promoter of pTAL-Luc (#6252-1, produced by Clontech) (UAS×5-TK-Luc) (1).
as §1, with “As PPAR-γ” for “As PPAR-α”, “and PPAR-γ2” for “and PPAR-α”, “domain (204-505aa)” for “domain (167-468aa)”, “Stratagene) (hGR-GAL4-hPPAR-γ)” for “Stratagene) (hGR-GAL4-hPPAR-α)”, “of PPAR-γ” for “of PPAR-α”
as §2, with “PPAR-γ” for “PPAR-α”
as §3

`CCCCCCCCCCCCCC(=O)N[C@H](C(=O)O)[C@@H](C)CC` [Example 25] gave a PPAR-α induction ratio (PPAR-α) of 50.0 and a PPAR-γ induction ratio (PPAR-γ) of 27.4.

Work on `CCCCCCCCCCCCCCCCCCCCCC(=O)N[C@H](C(=O)O)C(C)C` [Example 31] yielded a PPAR-α induction ratio (PPAR-α) of 1.2 and a PPAR-γ induction ratio (PPAR-γ) of 4.4.

`CCCCCCCCCCCC(=O)N[C@H](C(=O)O)[C@@H](C)CC` [Example 14] was tested, and the PPAR-α induction ratio (PPAR-α) was 51.0 and the PPAR-γ induction ratio (PPAR-γ) was 20.5.
